The inhibition is how much of the control response was suppressed.

For this assay, the target named is T1, CHK1 (checkpoint kinase-1) (Homo sapiens, UniProt O14757).
T1 construct: gene CHEK1
T1 sequence (O14757 1-476): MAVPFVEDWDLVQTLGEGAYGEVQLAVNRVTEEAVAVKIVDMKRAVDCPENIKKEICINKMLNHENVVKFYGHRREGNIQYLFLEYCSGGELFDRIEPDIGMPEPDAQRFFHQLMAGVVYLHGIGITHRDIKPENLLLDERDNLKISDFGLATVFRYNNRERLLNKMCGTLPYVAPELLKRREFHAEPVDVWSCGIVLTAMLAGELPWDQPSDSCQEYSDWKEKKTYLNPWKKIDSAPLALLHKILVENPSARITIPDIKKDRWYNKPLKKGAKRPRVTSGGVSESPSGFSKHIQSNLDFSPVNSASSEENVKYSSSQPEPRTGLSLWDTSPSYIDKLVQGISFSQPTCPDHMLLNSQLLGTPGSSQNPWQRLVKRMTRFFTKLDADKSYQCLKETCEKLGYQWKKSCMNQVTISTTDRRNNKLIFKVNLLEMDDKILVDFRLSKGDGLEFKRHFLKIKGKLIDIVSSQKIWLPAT
Description: in vitro binding test against human CHK1 (Eurofins Discovery), at […].
Take `CNC(=O)c1ccc(NC(=O)Nc2cnc(C)cn2)c(OC[C@@H]2CNCCO2)c1` [9a]: the inhibition at 1 µM stood at 95%.
In turn, `CNC(=O)c1ccc(OC[C@@H]2CNCCO2)c(NC(=O)Nc2cnc(C)cn2)c1` [9b] had an inhibition at 1 µM of 90%.
With `Cc1cnc(NC(=O)Nc2cc(Br)c(C)cc2OC[C@@H]2CNCCO2)cn1` [rabusertib] the figure was 98%.

These data come from article PMC12668314, “Identification of a Proteolysis‐Targeting‐Chimera that Addresses Activated Checkpoint Kinase‐1 Reveals its Non‐Catalytic Functions in Tumor Cells” (Angewandte Chemie (International Ed. in English), 2025).
